Molecules are shown by their SMILES. Where two headings read alike, the source gives them in different places.

The text below walks through data of article PMC5985520 (Molecular bioSystems, 2009).

For the assay, the target named is C2 domain of PKCα (Homo sapiens, UniProt P17252). The experiment in a line: SPR equilibrium binding of PKCα-C2 to lipid vesicles containing PA derivatives.

Consider `CCCCCCCC/C=C\CCCCCCCC(=O)O[C@H](COC(=O)CCCCCCCCCCCCCCC)COP(=O)(O)O` [POPA, 1-palmitoyl-2-oleoyl-sn-glycero-3-phosphatidic acid], for which the Kd was 440 ± 50 nM (read-out: Kd (dissociation constant for binding of PKCα-C2 to vesicles containing PA derivative), POPC:POPE:PA (40:40:20) vesicles, 20 mol% PA, L1 chip, 25°C, 25 mM Tris HCl pH 7.4, 150 mM NaCl, 1 mM CaCl2, 1 mM DTT) and 490 ± 90 nM (read-out: Kd (dissociation constant for binding of PKCα-C2 to vesicles containing PA derivative), POPC:POPE:PA (55:40:5) vesicles, 5 mol% PA, L1 chip, 25°C, 25 mM Tris HCl pH 7.4, 150 mM NaCl, 1 mM CaCl2, 1 mM DTT).

As usually defined, the Kd is the equilibrium constant for the complex coming apart.
